US9796711B2, “Substituted pyrazolo[3,4-b]pyridin-6-carboxylic acids and method of use” (AbbVie S.àr.l., priority 2015, dated 2017)

Tests used:
[1] = molecular target: T1, ΔF508-CFTR (Homo sapiens, UniProt P13569, DEL508-508); assay: CFTR cell surface levels using HRP-tagged ΔF508-CFTR expressing CFBE cells, in the presence of a co-corrector; assay type: cell-based; details: HRP-tagged ΔF508-CFTR expressing CFBE cells, in the presence of 3 μM co-corrector; for EC50: read-out: EC50
T1 construct: host or cells: CFBE41o-, doxycycline-inducible
T1 sequence (P13569 with tags, fused parts or gaps DEL508-508): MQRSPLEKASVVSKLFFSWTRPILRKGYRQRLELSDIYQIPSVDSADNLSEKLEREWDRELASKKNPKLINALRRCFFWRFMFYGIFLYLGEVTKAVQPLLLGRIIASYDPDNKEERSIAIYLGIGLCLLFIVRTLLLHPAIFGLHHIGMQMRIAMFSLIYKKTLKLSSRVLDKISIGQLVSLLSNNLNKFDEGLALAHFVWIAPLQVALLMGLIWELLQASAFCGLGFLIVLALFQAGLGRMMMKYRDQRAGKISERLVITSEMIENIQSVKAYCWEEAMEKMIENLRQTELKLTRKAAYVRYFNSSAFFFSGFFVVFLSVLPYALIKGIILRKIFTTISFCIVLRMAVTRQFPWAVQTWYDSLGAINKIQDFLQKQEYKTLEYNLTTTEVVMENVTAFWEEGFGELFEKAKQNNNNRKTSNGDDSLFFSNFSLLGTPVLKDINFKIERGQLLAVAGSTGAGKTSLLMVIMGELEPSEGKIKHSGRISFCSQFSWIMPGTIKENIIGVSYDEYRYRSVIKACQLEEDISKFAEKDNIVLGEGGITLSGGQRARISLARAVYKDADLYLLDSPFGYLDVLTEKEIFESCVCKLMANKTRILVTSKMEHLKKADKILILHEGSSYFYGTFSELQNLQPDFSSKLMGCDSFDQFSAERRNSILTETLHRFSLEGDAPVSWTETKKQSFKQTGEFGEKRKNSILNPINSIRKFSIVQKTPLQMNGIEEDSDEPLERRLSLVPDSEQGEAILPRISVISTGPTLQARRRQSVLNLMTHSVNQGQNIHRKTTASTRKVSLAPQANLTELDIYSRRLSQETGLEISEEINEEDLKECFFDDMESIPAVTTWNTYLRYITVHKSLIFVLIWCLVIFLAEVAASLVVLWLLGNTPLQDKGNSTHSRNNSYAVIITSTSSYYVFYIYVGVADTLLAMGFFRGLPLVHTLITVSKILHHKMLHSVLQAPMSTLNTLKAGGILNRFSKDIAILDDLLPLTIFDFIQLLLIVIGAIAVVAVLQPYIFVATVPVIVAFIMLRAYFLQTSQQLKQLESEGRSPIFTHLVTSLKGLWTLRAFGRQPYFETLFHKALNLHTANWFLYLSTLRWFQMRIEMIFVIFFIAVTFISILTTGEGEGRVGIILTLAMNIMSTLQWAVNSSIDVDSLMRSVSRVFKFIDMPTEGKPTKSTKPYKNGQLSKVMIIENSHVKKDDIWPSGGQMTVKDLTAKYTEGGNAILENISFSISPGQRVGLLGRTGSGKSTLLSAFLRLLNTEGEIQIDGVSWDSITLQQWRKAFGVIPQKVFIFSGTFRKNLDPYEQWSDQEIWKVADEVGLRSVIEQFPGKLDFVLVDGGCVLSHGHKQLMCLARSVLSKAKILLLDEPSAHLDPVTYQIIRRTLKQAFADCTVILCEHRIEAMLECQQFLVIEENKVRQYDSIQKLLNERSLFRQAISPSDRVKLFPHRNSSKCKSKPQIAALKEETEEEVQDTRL
Procedure, shortened: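 Cells were seeded with 0.5 μg/mL doxycycline and held 68 h at 37 °C. Test compounds plus 3 μM co-corrector (final 0.1% DMSO) were then added for 20 h at 33 °C. Washed cells received HRP substrate, and luminescence was normalized between DMSO and 3 μM co-corrector controls.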

[2] = molecular target: T1, ΔF508-CFTR; assay: CFTR cell surface levels using HRP-tagged ΔF508-CFTR expressing CFBE cells, intrinsic corrector capacity; assay type: cell-based; details: for EC50: read-out: EC50
Procedure, shortened: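 Here the cells express ΔF508-CFTR with horseradish peroxidase inserted in extracellular loop 4, so only rescued channel at the surface gives luminescent signal. Compounds act on their own, 20 h at the reduced temperature of 33 °C; values are percent activity relative to DMSO and a 3 μM corrector.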

[3] = HRP-tagged ΔF508-CFTR expressing CFBE cells, intrinsic corrector capacity (no co-corrector), 33° C., 20 hours
[4] = HRP-tagged ΔF508-CFTR CFBE41o- cells, compounds alone (intrinsic corrector capacity), 20 hours at 33° C., positive control 3 μM corrector
[5] = HRP-tagged ΔF508-CFTR CFBE41o- cells, compounds alone (intrinsic corrector capacity), 20 hours at 33° C.

Row | Compound | % Activation [1] | EC50 [1] | % Activation [2, 3] | EC50 [2, 3] | % Activation [2, 4] | EC50 [2, 5]
1 | O=C(O)c1cc(N2CC(F)(F)C[C@H]2CO)c2c(C3CCC3)nn(-c3ccccc3)c2n1 [compound 538, 3-cyclobutyl-4-[(2S)-4,4-difluoro-2-(hydroxymethyl)pyrrolidin-1-yl]-1-phenyl-1H-pyrazolo[3,4-b]pyridine-6-carboxylic acid] | 312.05% | 1.54 µM | 124.6% | 2.43 µM |  | 
2 | CC(C)c1nn(-c2ccc(F)cc2)c2nc(C(=O)O)cc(N3CCC(O)(CN(C)C(C)C)CC3)c12 [compound 798, 1-(4-fluorophenyl)-4-(4-hydroxy-4-{[methyl(propan-2-yl)amino]methyl}piperidin-1-yl)-3-(propan-2-yl)-1H-pyrazolo[3,4-b]pyridine-6-carboxylic acid] | 186.5% | 0.864 µM | 58.3% | 1.67 µM |  | 
3 | Cc1cccc(-n2nc(C(C)C)c3c(N4CCC5(CCCCC5)CC4)cc(C(=O)O)nc32)c1 [compound 360, 4-(3-azaspiro[5.5]undecan-3-yl)-1-(3-methylphenyl)-3-(propan-2-yl)-1H-pyrazolo[3,4-b]pyridine-6-carboxylic acid] | 293% | 1.03 µM |  |  | 96.335% | 1.17 µM
4 | O=C(O)c1cc(N2CCC(O)(CCO)CC2)c2c(C3CCC3)nn(-c3ccccc3)c2n1 [compound 546, 3-cyclobutyl-4-[4-hydroxy-4-(2-hydroxyethyl)piperidin-1-yl]-1-phenyl-1H-pyrazolo[3,4-b]pyridine-6-carboxylic acid] | 246.6% | 3.33 µM | 87.52% | 3.33 µM |  | 
5 | CN1CCC(C2CCN(c3cc(C(=O)O)nc4c3c(C3CCC3)nn4-c3ccccc3)CC2)CC1 [compound 454, 3-cyclobutyl-4-(1′-methyl[4,4′-bipiperidin]-1-yl)-1-phenyl-1H-pyrazolo[3,4-b]pyridine-6-carboxylic acid] | 470.3% | 0.636 µM | 253.5% | 0.998 µM |  | 
6 | CC(C)c1nn(-c2ccc(F)cc2)c2nc(C(=O)O)cc(N3CCC(N4CCN(C)CC4)CC3)c12 [compound 753, 1-(4-fluorophenyl)-4-[4-(4-methylpiperazin-1-yl)piperidin-1-yl]-3-(propan-2-yl)-1H-pyrazolo[3,4-b]pyridine-6-carboxylic acid] | 377.6% | 0.301 µM | 215% | 1.03 µM |  | 
7 | O=C(O)c1cc(N2CC3(CCCC3)C2)c2c(C3CCC3)nn(-c3ccccc3)c2n1 [compound 404, 4-(2-azaspiro[3.4]octan-2-yl)-3-cyclobutyl-1-phenyl-1H-pyrazolo[3,4-b]pyridine-6-carboxylic acid] | 275.95% | 0.849 µM | 104.91% | 0.91 µM |  | 
8 | COc1cccc(-n2nc(C3CCC3)c3c(N4CCC(N5CCOCC5)CC4)cc(C(=O)O)nc32)c1 [compound 822, 3-cyclobutyl-1-(3-methoxyphenyl)-4-[4-(morpholin-4-yl)piperidin-1-yl]-1H-pyrazolo[3,4-b]pyridine-6-carboxylic acid] | 472.75% | 1.14 µM | 272.3% | 0.301 µM |  | 
9 | COC1CCCN(C2CCN(c3cc(C(=O)O)nc4c3c(C3CCC3)nn4-c3ccc(F)cc3)CC2)C1 (centres unmarked) [compound 875, 3-cyclobutyl-1-(4-fluorophenyl)-4-(3-methoxy[1,4′-bipiperidin]-1′-yl)-1H-pyrazolo[3,4-b]pyridine-6-carboxylic acid] | 450.3% | 0.819 µM | 270.7% | 1.6 µM |  | 
10 | COCC1CN(c2cc(C(=O)O)nc3c2c(C)nn3-c2ccccc2)C1 [compound 294, 4-[3-(methoxymethyl)azetidin-1-yl]-3-methyl-1-phenyl-1H-pyrazolo[3,4-b]pyridine-6-carboxylic acid] | 225.5% | 2.51 µM |  |  | 73.275% | 2.51 µM
11 | COC1CCCN(c2cc(C(=O)O)nc3c2c(C2CCC2)nn3-c2ccccc2)C1 (centres unmarked) [compound 468, 3-cyclobutyl-4-(3-methoxypiperidin-1-yl)-1-phenyl-1H-pyrazolo[3,4-b]pyridine-6-carboxylic acid] | 297.2% | 0.371 µM | 120.3% | 0.618 µM |  | 
12 | CC1(C)OC[C@@H](COc2cc(C(=O)O)nc3c2c(C2CCC2)nn3-c2ccccc2)O1 [compound 618, 3-cyclobutyl-4-{[(4R)-2,2-dimethyl-1,3-dioxolan-4-yl]methoxy}-1-phenyl-1H-pyrazolo[3,4-b]pyridine-6-carboxylic acid] | 315.25% | 0.351 µM | 105.9% | 0.547 µM |  | 
13 | COCCN(C)c1ncc(-c2cc(C(=O)O)nc3c2c(C(C)C)nn3C2CCCCC2)cn1 [compound 237, 1-cyclohexyl-4-{2-[(2-methoxyethyl)(methyl)amino]pyrimidin-5-yl}-3-(propan-2-yl)-1H-pyrazolo[3,4-b]pyridine-6-carboxylic acid] | 372.97% | 0.324 µM |  |  | 227% | 0.51 µM
14 | O=C(O)c1cc(-c2ccc(N3CCOCC3)cc2)c2c(C3CCC3)nn(-c3cccc(F)c3)c2n1 [compound 349, 3-cyclobutyl-1-(3-fluorophenyl)-4-[4-(morpholin-4-yl)phenyl]-1H-pyrazolo[3,4-b]pyridine-6-carboxylic acid] | 382.73% | 0.236 µM |  |  | 208.2% | 0.46 µM
15 | CC1(COc2cc(C(=O)O)nc3c2c(C2CCC2)nn3-c2ccccc2)COCOC1 [compound 622, 3-cyclobutyl-4-[(5-methyl-1,3-dioxan-5-yl)methoxy]-1-phenyl-1H-pyrazolo[3,4-b]pyridine-6-carboxylic acid] | 275.2% | 0.0675 µM | 124.5% | 0.165 µM |  | 
16 | Cc1nn(-c2ccccc2)c2nc(C(=O)O)cc(-c3ccc(N4CCN(CCC(F)(F)F)CC4)cc3)c12 [compound 82, 3-methyl-1-phenyl-4-{4-[4-(3,3,3-trifluoropropyl)piperazin-1-yl]phenyl}-1H-pyrazolo[3,4-b]pyridine-6-carboxylic acid] | 335.65% | 0.971 µM |  |  | 135.95% | 1.01 µM
17 | Cc1nn(-c2ccccc2)c2nc(C(=O)O)cc(-c3ccc(N4CCN(CCO)CC4)cc3)c12 [compound 107] | 164.5% | 3.34 µM |  |  | 20.98% | > 10 µM
18 | O=C(O)c1cc(N2CCC(N3CCN(C4COC4)CC3)CC2)c2c(C3CCC3)nn(-c3ccc(F)cc3)c2n1 [compound 899, 3-cyclobutyl-1-(4-fluorophenyl)-4-{4-[4-(oxetan-3-yl)piperazin-1-yl]piperidin-1-yl}-1H-pyrazolo[3,4-b]pyridine-6-carboxylic acid] | 351.9% | 0.309 µM | 210.9% | 3.1 µM |  | 
19 | Cc1nn(-c2ccccc2)c2nc(C(=O)O)cc(N3CCCOCC3)c12 [compound 315, 3-methyl-4-(1,4-oxazepan-4-yl)-1-phenyl-1H-pyrazolo[3,4-b]pyridine-6-carboxylic acid] | 150.3% | 4.17 µM |  |  | 24.61% | 3.43 µM
20 | COCCCN1CCN(c2cc(C(=O)O)nc3c2c(C(C)C)nn3-c2ccc(F)cc2)CC1 [compound 776, 1-(4-fluorophenyl)-4-[4-(3-methoxypropyl)piperazin-1-yl]-3-(propan-2-yl)-1H-pyrazolo[3,4-b]pyridine-6-carboxylic acid] | 261.4% | 0.531 µM | 113.2% | 1.67 µM |  | 
21 | O=C(O)c1cc(N2CCC3(CC2)CCN(C2COC2)CC3)c2c(C3CCC3)nn(-c3ccc(F)cc3)c2n1 [compound 904, 3-cyclobutyl-1-(4-fluorophenyl)-4-[9-(oxetan-3-yl)-3,9-diazaspiro[5.5]undecan-3-yl]-1H-pyrazolo[3,4-b]pyridine-6-carboxylic acid] | 372.85% | 0.102 µM | 200.1% | 0.237 µM |  | 
22 | O=CN1CCCN(CC2CCN(c3cc(C(=O)O)nc4c3c(C3CCC3)nn4-c3ccccc3)CC2)CC1 [compound 839] | 437.3% | 0.18 µM | 275.7% | 0.921 µM |  | 
23 | CC(=O)N1CC(c2nn(-c3ccccc3)c3nc(C(=O)O)cc(-c4ccc(N5CCOCC5)cc4)c23)C1 [compound 78, 3-(1-acetylazetidin-3-yl)-4-[4-(morpholin-4-yl)phenyl]-1-phenyl-1H-pyrazolo[3,4-b]pyridine-6-carboxylic acid] | 132% | > 10 µM |  |  | 10.784% | > 10 µM
